Measurements reported in US20150352034A1, “Personal Care Products Containing Microalgae or Extracts Thereof” (Solazyme, Inc., priority 2014, published 2015).

Key:
[1] = tested on: MatTek's EpiDerm tissue; experiment: UVB protection assay, MTT tissue viability; assay type: cell-based, human; conditions: 300 mJ/cm^2 UVB, then 1 mM, 100 μl topically for 24 hours; in % (unit assumed)
Procedure: MatTek's EpiDerm tissue, a skin model that consists of normal human-derived epidermal keratinocytes cultured to form a multilayered, highly differentiated model of the human epidermis, was used to measure changes in tissue viability. The tissues were exposed to 300 mJ/cm^2 of UVB radiation and subsequently topically treated with the aforementioned test materials over a period of 24 hours. Materials were tested for their abilities to either maintain tissue viability after UVB exposure or aid in the recovery of tissue damaged by UVB radiation. […] The MTT analysis involved a colorimetric analysis of tissue metabolic activity, the increased presence of color indicating the presence of metabolically-active living cells. Reduction of MTT by mitochondria in viable cells results in purple formazin crystals; the intensity of the purple color is directly proportional to metabolically active cells in the tissue. The tissues were stored at 4° C. until used. […] One gram of WAF was mixed with 10 ml of water for one hour at room temperature. The WAF-water mixture was then centrifuged for 5 minutes to pellet any undissolved material and the supernatant was used for topical application. The Sample B, Sample F, and Sample A were applied topically without any further processing. […] Reduced MTT was subsequently extracted from the tissues and colorimetrically analyzed at 540 nm to determine tissue viability.

[2] = tested on: thymine dimers in genomic DNA of MatTek's EpiDerm tissue; experiment: Thymine dimer formation after UVB; assay type: cell-based, human; conditions: 300 mJ/cm^2 UVB, then 1 mM, 100 μl topically for 24 hours
Procedure: This method was designed to evaluate changes in tissue DNA thymine dimer content after exposure to UVB. The testing system used for this assay was MatTek's EpiDerm tissue, a skin model that consists of normal human-derived epidermal keratinocytes cultured to form a multilayered, highly differentiated model of the human epidermis. For this study, the tissues were exposed to UVB (300 mJ/cm^2) and then treated topically for 24 hours with the test material. Following the treatment the DNA was extracted from the EpiDerm tissues and assayed for thymine dimer content. For the assay, samples of the DNA were immobilized on a solid membrane support and incubated with an antibody that recognizes thymine dimers in double stranded DNA. The primary antibody was then detected using a secondary antibody conjugated to a fluorescent dye. The membrane was then scanned using an excitation laser and emission filter combination appropriate for the fluorescent dye. With this method, the fluorescence intensity of each sample is proportional to the amount of the thymine dimers present in the sample. […] UVB lamp intensity was measured using a UVX radiometer with a probe specific for UVB (detects 260-360 nm, max absorbance at 310 nm, calibrated at 310 nm) to determine exposure times required for the appropriate UVB dose. […] Extracted DNA was quantified via a fluorometric assay. […]

[3] = tested on: elastin synthesis in fibroblasts; experiment: Elastin Assay (ELISA, fibroblast culture medium); assay type: cell-based; conditions: 48 h
Procedure: (§1) The type I C-peptide fragment was measured because procollagen, a precursor to mature collagen, is cleaved in collagen and type I C-peptide fragments in a 1:1 ratio. By measuring the amount of type I C-peptide fragments in the tissue medium, collagen production was measured. Elastin was measured directly from the cell culture medium. Hyaluronic acid was measured in the tissue culture media. All measurements were performed using an ELISA based method.
(§2) Powder materials were prepared by combining 1 gram of the powder material with either 10 ml ultrapure water or 10 ml of DMSO. The mixtures were incubated for one hour at room temperature on a rocking platform to saturate the extraction medium with the test material. The mixture was then centrifuged to separate the saturated extract solution from the undissolved solid materials. The oil based materials were prepared as a stock solution in DMSO and then diluted into the culture media such that the final concentration of DMSO was 1%. A 1% DMSO control was included to account for any effect the solvent might have when evaluating the effect of the oils or DMSO prepared powders. […]
A set of alpha-elastin standards was generated ranging from 0 to 100 ng/ml. […] After the final incubation, the plate was read at 460 nm using a plate reader.

[4] = tested on: procollagen synthesis in fibroblasts; experiment: Type I Collagen Assay (type I C-peptide ELISA, fibroblast culture medium); assay type: cell-based; conditions: 48 h
Procedure: as §1, §2
A series of type I C-peptide standards were prepared ranging from 0 ng/ml to 640 ng/ml for the procollagen assay. […] After the incubation 100 μl of stop solution (1 N sulfuric acid) was added to each well and the plate was read using a microplate reader at 450 nm.

[5] = tested on: hyaluronic acid synthesis in fibroblasts; experiment: Hyaluronic Acid Assay (ELISA, fibroblast culture medium); assay type: cell-based
Procedure: as §1
Powder materials were prepared by combining 1 gram of the powder material with either 10 ml ultrapure water or 10 ml of DMSO. The mixtures were incubated for one hour at room temperature on a rocking platform to saturate the extraction medium with the test material. The mixture was then centrifuged to separate the saturated extract solution from the undissolved solid materials. The oil based materials were prepared as a stock solution in DMSO and then diluted into the culture media such that the final concentration of DMSO was 1%. A 1% DMSO control was included to account for any effect the solvent might have when evaluating the effect of the oils or DMSO prepared powders.
The fibroblast cell culture was prepared by seeding fibroblasts into the individuals wells of a 24-well plate in 0.5 ml of Fibroblast Growth Media (FGM) and incubated overnight at 37±2° C. and at 5±1% CO2. The media was removed via aspiration to eliminate non-adherent cells and replaced with 0.5 ml of fresh FGM. The medium was changed every 48 to 72 hours until the cells growth reached confluency. Once confluent, the cells were treated for 24 hours with DMEM supplemented with 1.5% FBS to wash out any growth factors present in the normal culture media.
The prepared fibroblast cell cultures were then treated with the prepared test materials at the aforementioned concentrations dissolved in FGM with 1.5% FBS. TGF-B at a concentration of 50 ng/ml was used as a positive control for collagen and elastin, and dibutyrl cAMP at a concentration of 0.1 mM was used as a positive control for hyaluronic acid. Untreated cells received DMEM with 1.5% FBS. The cells were incubated for 48 hours and then either frozen or assayed immediately. Materials were tested in triplicate.
A series of hyaluronic acid standards was prepared ranging from 50 ng/ml to 3,200 ng/ml. Next, 100 μl of each standard (in duplicate) and sample was transferred to a well in an incubation plate. After adding 50 μl of detection solution to each well (except the reagent blank wells) the plate was incubated for 1±0.25 hour at 37±2° C. […] After this final incubation 50 μl of stop solution was added to each well and the absorbance of the plate was measured at 405 nm using a plate reader.

## Cc1c(C)c2c(c(C)c1O)CCC(C)(C(=O)O)O2 (stereo not shown) [Trolox, 6-hydroxy-2,5,7,8-tetramethylchroman-2-carboxylic acid]
[1]
  Viability: 98 ± 5.6
[2]
  Thymine Dimer Formation: 296.5 ± 12.2 ng/mL

## CCCC(=O)Nc1ncnc2c1ncn2[C@@H]1O[C@@H]2COP(=O)(O)O[C@H]2[C@H]1OC(=O)CCC [dBcAMP, dibutyrl cAMP]
[3]; 0.1 mM
  Elastin: 43 ± 16 ng/mL
[4]; 0.1 mM
  Type I C-Peptide: 3438 ± 277 ng/mL
[5]; Table Va, 0.1 mM, 48 h
  Hyaluronic Acid: 494 ± 51 ng/mL
[5]; Table Vb, 0.1 mM
  Hyaluronic Acid: 547 ± 31 ng/mL

## TGF-B
[3]; 50 ng/ml
  Elastin: 178 ± 6 ng/mL
[4]; 50 ng/ml
  Type I C-Peptide: 5282 ± 178 ng/mL
[5]; Table Va, 50 ng/ml, 48 h
  Hyaluronic Acid: 260 ± 34 ng/mL
[5]; Table Vb, 50 ng/ml
  Hyaluronic Acid: 528 ± 96 ng/mL
